Assay: xn = mol fraction of the nth substance listed
Details: 100 kPa, Liquid; for electrical conductivity: Alternating current cell with electrodes; for viscosity: Capillary tube (Ostwald / Ubbelohde) method; for mass density: Vibrating tube method

Cn1cc[n+](C)c1.O=S(=O)([N-]S(=O)(=O)C(F)(F)F)C(F)(F)F [1,3-dimethylimidazolium bis((trifluoromethyl)sulfonyl)amide] + O=C1CCCO1
Details	electrical conductivity, 298.15 K [S/m]	electrical conductivity, 303.15 K [S/m]	electrical conductivity, 308.15 K [S/m]	mass density, 298.15 K [kg/m3]	mass density, 303.15 K [kg/m3]	mass density, 308.15 K [kg/m3]	viscosity, 298.15 K [mPa·s]	viscosity, 303.15 K [mPa·s]	viscosity, 308.15 K [mPa·s]
x1 = 0.05124	1.13	1.22	1.32	1190.03	1185.01	1180.03	2.27	2.08	1.85
x1 = 0.09948	1.58	1.72	1.85	1240.94	1235.89	1230.85	2.86	2.61	2.39
x1 = 0.1551	1.75	1.9	2.06	1289.73	1284.67	1279.57	3.61	3.24	3.02
x1 = 0.2007	1.77	1.94	2.09	1323.77	1318.66	1313.53	4.44	4	3.62
x1 = 0.2991	1.73	1.9	2.07	1383.3	1378.16	1372.98	6.56	5.81	5.23
x1 = 0.4002	1.6	1.76	1.93	1430.37	1425.2	1419.99	9.39	8.35	7.3
x1 = 0.4998	1.47	1.63	1.79	1467.09	1461.93	1456.71	12.79	11.04	9.7
x1 = 0.6127	1.29	1.45	1.61	1500.46	1495.28	1490.05	17.69	15.09	12.98
x1 = 0.7009	1.17	1.32	1.47	1522	1516.83	1511.6	22.05	18.61	16
x1 = 0.8002	1.05	1.19	1.34	1542.63	1537.44	1532.21	27.52	22.9	19.53
x1 = 0.8997	0.905	1.04	1.18	1560.16	1554.97	1549.75	33.41	27.66	23.46
x1 = 1	0.774	0.915	1.06	1575.42	1570.25	1565.01	39.43	32.51	27.47
